{"source": "patent US20170049845A1", "about": "“METHODS OF TREATING ALZHEIMER'S DISEASE, HUNTINGTON'S DISEASE, AUTISM, OR OTHER DISORDERS” (Northwestern University, priority 2011, published 2017)", "key": {"[1]": {"test_system": "Schaffer collateral-CA1 synapses", "experiment": "hAβ-induced impairment of LTP at Schaffer collateral-CA1 synapses in acute hippocampal slices", "assay_type": "cell-based, rat", "settings": "high-frequency Schaffer collateral stimulation 30 min later", "description": "FIG. 5 depicts rescue of Aβ impairment of long-term potentiation (LTP) of synaptic transmission at Schaffer collateral-CA1 synapses in hippocampal slices in presence of GLYX-13. A: Time course of the effect of pressure ejection of Aβ(1-42) into stratum radiatum of field CA1 (Aβ injections; 12 psi/100 ms; filled circles; n=10) on basal synaptic transmission and LTP induced by high-frequency stimulus trains (3×100 Hz/500 ms), compared to vehicle (TFE) injection (open circles; n=8). B: Time course of the effect of pressure ejection of Aβ(1-42) into stratum radiatum of field CA1 in the presence of 1 μM Glyx-13 (Aβ injections; 12 psi/100 ms; filled circles; n=8) on basal synaptic transmission and LTP induced by high-frequency stimulus trains (3×100 Hz/500 ms), compared to vehicle (TFE) injection (open circles; n=8). C: Time course of the effect of pressure ejection of Aβ(1-42) into stratum radiatum of field CA1 in the presence of 1 μM D-cycloserine (Aβ injections; 12 psi/100 ms; filled circles; n=7) on basal synaptic transmission and LTP induced by high-frequency stimulus trains (3×100 Hz/500 ms), compared to vehicle (TFE) injection (open circles; n=8). D: Time course of the effect of pressure ejection of Aβ(1-42) into stratum radiatum of field CA1 in the presence of 100 μM D-Serine (Aβ injections; 12 psi/100 ms; filled circles; n=8) on basal synaptic transmission and LTP induced by high-frequency stimulus trains (3×100 Hz/500 ms), compared to vehicle (TFE) injection (open circles; n=8). Each point in A, B and C is mean±SEM normalized fEPSP slope.\nWe pressure ejected hAβ in the absence or presence of Glyx-13, D-cycloserine or the full agonist D-serine, into the Schaffer collateral synaptic field in CA1 stratum radiatum of acute in vitro rat hippocampal slices and attempted to evoke LTP 30 min later. FIG. 5A illustrates that hAβ alone caused a significant reduction (˜20%) in the magnitude of LTP elicited by high-frequency Schaffer collateral stimulation."}, "autistic individuals": {"test_system": "autistic individuals", "settings": "cited from earlier work"}, "low-line rats": {"test_system": "low-line rats", "experiment": "Conspecific play induced pro-social USVs in low-line rats (autism model)", "assay_type": "in vivo, rat", "settings": "adolescent male low-line rats, 50 mg/kg s.c. 15 min before testing, vs vehicle, P<0.05", "procedure": "FIG. 2 depicts Mean±SEM (A) rates of conspecific play induced pro-social USVs (frequency-modulated 50 kHz calls) in adolescent male low-line rats pretreated with vehicle (1 mg/ml sterile saline s.c.) or (B) GLYX-13 (50 mg/kg s.c.) […] before the start of testing using a within-subjects design. (C) Proportion of total conspecific play induced USVs that were monotonous (i.e., bandwidth less than 7 kHz; n=9 per group. *P<0.05 Fisher PLSD post hoc test, 2 tailed.\nCore symptoms of autism (1) deficits in social emotions and motivations, 2) communication problems, and 3) a high incidence of motor abnormalities, especially repetitive behaviors) can be modeled in part in animals using the following behavioral measures, respectively: (1) reduced time spent in social contact; (2) reduced rates of pro-social vocalizations, and (3) disrupted ultrasonic vocalization patterns.\nThe proportion of total conspecific play induced USVs that were monotonous (i.e., bandwidth less than 7 kHz) is shown in FIG. 2C. n=9 per group. *P<0.05 Fisher PLSD post hoc test, 2 tailed."}, "CA1 pyramidal neurons": {"test_system": "CA1 pyramidal neurons", "experiment": "Protection against human b-amyloid (1-42) toxicity in organotypic hippocampal slice cultures (propidium fluorescence)", "assay_type": "cell-based", "settings": "5 μg/ml hAβ, 24 hr after application", "description": "FIG. 4 depicts delayed neuronal death produced by Aβ(1-42) in organotypic hippocampal slice cultures upon application of GLYX-13; Mean±SEM propidium fluorescence 24 hr after bath application of Aβ(1-42) alone, versus Aβ(1-42) in the presence of indicated concentrations (μg/ml) of Glyx-13 (*, […], Student's t-test compared to Aβ alone).\nTo determine whether Glyx-13, by renormalizing activation of NMDA receptors, might protect against the toxicity of hAβ to susceptible neurons in a physiological network milieu, we compared the long-term effects of hAβ in the absence and presence of different concentrations of Glyx-13."}, "HD 51 CAG and WT rats": {"test_system": "HD 51 CAG and WT rats", "experiment": "Huntington's disease model, serial operant reversal task, phase 3 pseudo-random testing", "assay_type": "in vivo, rat", "settings": "subcutaneously 20 minutes prior to task", "procedure": "HD 51 CAG and WT (wild type) rats are used in a Huntington's disease model study, testing cognition with serial operant reversal tasks. Rats are dosed according to the following schedule:\nThe animals are first placed in an acquisition trial. The acquisition trial is an 8-hour testing period where the animal is reinforced with a sucrose food pellet for a “correct” lever press after a variable interval time of 30 seconds. This task requires the animals to learn which lever needs to be activated to gain reinforcement. The time taken to identify the “correct” lever is measured, as well as the number of reinforcers earned, percentage of “correct” lever presses, and errors made (incorrect lever presses). The acquisition trial is performed with access to water ad libidum. […]\nThe testing session is conducted using a progressive FR schedule for 25 or 30 days. […] The response rate for the left and right lever is recorded, as well as the total number of lever presses for each side, the total number of lever presses combined for each side in a session, the percentage of “correct” lever presses (“correct” lever presses/left lever presses+right lever presses then multiplied by 100 to obtain a percentage), the total reinforcers earned, and the time to complete each session. The rats are given one day off before the second phase of testing begins, with only the weight of the rats being recorded. […]"}}, "note": "Residues, ends and D or L forms follow the SMILES beside them.", "data": [{"smiles": "N[C@H](CO)C(=O)O", "note": "[D-serine]", "values": [{"measurement": "rescue of LTP after hAβ pressure ejection", "setting": "[1]", "value": "nor the full agonist D-serine (100M, FIG. 5D, open circles) was able to rescue LTP"}]}, {"smiles": "N[C@@H]1CONC1=O", "note": "[D-cycloserine]", "values": [{"measurement": "rescue of LTP after hAβ pressure ejection", "setting": "[1]; 1 μM bath-applied", "value": "neither the glycine site partial agonist D-cycloserine (1 μM, FIG. 5C, open circles) nor the full agonist D-serine (100M, FIG. 5D, open circles) was able to rescue LTP"}, {"measurement": "social withdrawal", "setting": "autistic individuals; autistic individuals (Posey et al., 2004)", "value": "significantly improved"}]}, {"smiles": "Cc1nc2n(c(=O)c1CCN1CCC(c3noc4cc(F)ccc34)CC1)CCCC2", "note": "[risperidone]", "values": [{"measurement": "hyperactivity and irritability symptoms", "setting": "autistic individuals; autism", "value": "significantly decrease"}, {"measurement": "inappropriate speech or social withdrawal", "setting": "autistic individuals; autism", "value": "little to no effect"}, {"measurement": "side effects", "setting": "autistic individuals; autism", "value": "significant weight gain and sedative side effects"}]}, {"smiles": "C[C@@H](O)[C@H](N)C(=O)N1CCC[C@H]1C(=O)N1CCC[C@H]1C(=O)N[C@H](C(N)=O)[C@@H](C)O", "note": "[GLYX-13, L-threonyl-L-prolyl-L-prolyl-L-threonine amide] (H-TPPT-NH2)", "values": [{"measurement": "proportion of total USVs that are monotonous (bandwidth less than 7 kHz)", "setting": "low-line rats", "value": "significantly decreased"}, {"measurement": "rates of play inducing pro-social USVs (frequency-modulated 50 kHz calls)", "setting": "low-line rats", "value": "significantly increased"}, {"measurement": "dose-response relation of neuroprotective potency", "setting": "CA1 pyramidal neurons", "value": "U-shaped dose-response relation"}, {"measurement": "rescue of LTP after hAβ pressure ejection", "setting": "[1]; 1 μM bath-applied", "value": "LTP was restored to normal control levels"}, {"measurement": "percentage of correct lever presses vs saline injections", "setting": "HD 51 CAG and WT rats; HD animals", "value": "higher percentage trends of correct lever presses"}, {"measurement": "percentage of correct lever presses vs saline injections", "setting": "HD 51 CAG and WT rats; WT animals", "value": "higher percentage trends of correct lever presses"}]}]}
